Experiments:
[1] = biological target: T1, CYP2D6 (Homo sapiens, UniProt P10635); experiment: CYP2D6-mediated bufuralol 1′-hydroxylation in pooled human liver microsomes; assay type: in vitro ADME; conditions: up to 50 µM, without 30-min preincubation
T1 construct: from tissue; host or cells: ultrapooled human liver microsomes
Protocol: The inhibitory potential (IC50 values) of EAM-2201 on CYP1A2, CYP2A6, CYP2C8, CYP2C9, CYP2C19, CYP2D6 and CYP3A4 were evaluated using ultrapooled human liver microsomes and a cocktail of seven CYP substrates followed by LC-tandem mass spectrometry (LC-MS/MS) as previously described. […] Aliquots (5 µL) of the diluted supernatants were analyzed using LC-MS/MS. […]
(§1) The metabolites formed from CYP substrates were simultaneously quantified using our previously described LC-MS/MS method. […] Quantification was performed by selected reaction monitoring (SRM) of the [M + H]^+ ion and the related product ion for each metabolite: acetaminophen, 152.1 > 110.3; N-desethylamodiaquine, 328.1 > 283.0; 7-hydroxycoumarin, 163.0 > 107.2; 4-hydroxybupropion, 256.1 > 238.0; 4′-hydroxydiclofenac, 312.0 > 231.1; 4′-hydroxy-mephenytoin, 235.1 > 150.1; 1′-hydroxybufuralol, 278.1 > 186.1; 1′-hydroxymidazolam, 341.9 > 324.0; ^13C2,^15N-acetaminophen, 155.1 > 111.2; and d9-1′-hydroxybufuralol, 287.2 > 187.0. […]

[2] = biological target: T2, CYP2B6 (Homo sapiens, UniProt P20813); experiment: CYP2B6-mediated bupropion hydroxylation in pooled human liver microsomes; assay type: in vitro ADME; conditions: up to 50 µM, without 30-min preincubation
T2 construct: from tissue; host or cells: ultrapooled human liver microsomes
T2 sequence (P20813 1-491): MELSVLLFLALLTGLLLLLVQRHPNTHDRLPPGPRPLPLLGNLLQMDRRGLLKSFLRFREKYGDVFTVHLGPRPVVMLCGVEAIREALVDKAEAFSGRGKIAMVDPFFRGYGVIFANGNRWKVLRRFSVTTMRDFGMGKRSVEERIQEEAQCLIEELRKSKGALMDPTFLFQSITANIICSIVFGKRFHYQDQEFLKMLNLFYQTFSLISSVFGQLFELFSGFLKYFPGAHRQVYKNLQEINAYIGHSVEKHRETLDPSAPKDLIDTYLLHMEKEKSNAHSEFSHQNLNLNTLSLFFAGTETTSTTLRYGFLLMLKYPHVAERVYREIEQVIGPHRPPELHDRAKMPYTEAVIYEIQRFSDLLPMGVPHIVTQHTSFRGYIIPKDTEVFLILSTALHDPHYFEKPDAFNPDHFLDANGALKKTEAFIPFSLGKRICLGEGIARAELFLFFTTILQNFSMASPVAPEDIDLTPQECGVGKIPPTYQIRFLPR
Protocol: The inhibitory effects (IC50 values) of EAM-2201 on CYP2B6-catalyzed bupropion 4-hydroxylase activity were determined in ultrapooled human liver microsomes using LC-MS/MS [41]. Each incubation mixture was prepared in a total volume of 100 µL as follows: pooled human liver microsomes (5.2 pmol CYP), 1.0 mM NADPH, 10 mM magnesium chloride, 50 mM potassium phosphate buffer (pH 7.4), various concentrations of EAM-2201 in DMSO (final 0.1–50 µM, 0.5% DMSO) and CYP2B6-selective substrate and 50 µM bupropion. After a 3-min preincubation at 37 °C, reactions were initiated by adding NADPH, followed by incubation for 15 min at 37 °C in a shaking water bath. […] Aliquots (5 µL) of the diluted supernatants were analyzed by LC-MS/MS. […]
as §1

T1 sequence (P10635 whole entry): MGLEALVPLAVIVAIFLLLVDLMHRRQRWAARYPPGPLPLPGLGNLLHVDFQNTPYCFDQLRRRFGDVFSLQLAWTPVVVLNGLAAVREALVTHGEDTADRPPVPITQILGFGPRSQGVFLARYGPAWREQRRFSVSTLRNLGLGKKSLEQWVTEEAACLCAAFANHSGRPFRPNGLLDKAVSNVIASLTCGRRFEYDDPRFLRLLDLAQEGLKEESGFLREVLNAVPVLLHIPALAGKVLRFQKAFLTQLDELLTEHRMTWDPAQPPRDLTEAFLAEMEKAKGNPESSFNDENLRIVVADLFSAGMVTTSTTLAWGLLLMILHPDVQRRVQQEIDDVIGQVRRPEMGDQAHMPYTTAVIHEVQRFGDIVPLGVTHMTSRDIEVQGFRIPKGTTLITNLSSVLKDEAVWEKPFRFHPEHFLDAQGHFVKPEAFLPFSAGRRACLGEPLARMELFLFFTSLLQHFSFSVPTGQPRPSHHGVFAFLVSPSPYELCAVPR

CCc1ccc(C(=O)c2cn(CCCCCF)c3ccccc23)c2ccccc12 [EAM-2201, (4-ethyl-1-naphthalenyl)[1-(5-fluoropentyl)-1H-indol-3-yl]-methanone]
inhibition of CYP2D6-mediated bufuralol 1′-hydroxylation [1]: negligibly inhibited | inhibition of CYP2B6-mediated bupropion hydroxylation [2]: negligibly inhibited
